In PubChem BioAssay AID1963423 (Molecular Pharmacology Branch, DTP, NCI, 2024):
pIC50: −log10 of the molar value. Where “and” joins values, the source holds several entries; their conditions need not be identical. Equal values may be shown once. Blank lines part the entries; values can stand above or below the molecule they belong to.

Tested on: 439559-082-T-J2-PDC complex spheroid growth
Experiment: Anticancer human tumor 439559-082-T-J2-PDC patient-derived colon adenocarcinoma cell line growth inhibition [Asc]
Conditions: for viability, T/C: stronger effect = lower value
Outline: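 Stromal components (HUVEC and hMSC) are co-assembled with the cancer cells into multicellular spheroids. Drugs are then added singly or paired, at concentrations falling by half-log increments from a clinically achievable maximum, capped at 10 microM without known Cmax.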

[1] = curve of first compound, second compound 0.1 µM
[2] = curve of first compound, second compound 0.316 µM
[3] = curve of first compound, second compound 1 µM
[4] = second compound 0.1 µM, first compound 0.00316 µM
[5] = second compound 0.1 µM, first compound 0.01 µM
[6] = second compound 0.1 µM, first compound 0.0316 µM
[7] = second compound 0.1 µM, first compound 0.1 µM
[8] = second compound 0.316 µM, first compound 0.00316 µM
[9] = second compound 0.316 µM, first compound 0.01 µM
[10] = second compound 0.316 µM, first compound 0.0316 µM
[11] = second compound 0.316 µM, first compound 0.1 µM
[12] = second compound 1 µM, first compound 0.00316 µM
[13] = second compound 1 µM, first compound 0.01 µM
[14] = second compound 1 µM, first compound 0.0316 µM
[15] = second compound 1 µM, first compound 0.1 µM
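Also: spheroids exposed to agents for 7 days starting day 3 after seeding.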
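For viability, T/C in this document: percent of DMSO vehicle control viability with 100% = vehicle.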

pIC50 (curve of first compound, second compound 0.00316 µM): < 6.00
pIC50 (curve of first compound, second compound 0.01 µM): < 6.00
pIC50 (curve of first compound, second compound 0.0316 µM): < 6.00
pIC50 [1]: < 6.00
pIC50 [2]: < 6.00
pIC50 [3]: 6.42
Structure (SMILES): COc1c(OCCCN2CCOCC2)ccc2c3n(c(=NC(=O)c4cnc(N)nc4)nc12)CCN3 + CNC(C)C(=O)NC1CN(S(=O)(=O)c2cccc(S(=O)(=O)N3CCC4CCC(C(=O)NC(c5ccccc5)c5ccccc5)N4C(=O)C(NC(=O)C(C)NC)C3)c2)CCC2CCC(C(=O)NC(c3ccccc3)c3ccccc3)N2C1=O
viability, T/C (second compound 0.00316 µM, first compound 0.00316 µM): 100%
viability, T/C (second compound 0.00316 µM, first compound 0.01 µM): 95.2%
viability, T/C (second compound 0.00316 µM, first compound 0.0316 µM): 98.9%
viability, T/C (second compound 0.00316 µM, first compound 0.1 µM): 80.8%
viability, T/C (second compound 0.00316 µM, first compound 0.316 µM): 72.6%
viability, T/C (second compound 0.00316 µM, first compound 1 µM): 64.7%
viability, T/C (second compound 0.01 µM, first compound 0.00316 µM): 102%
viability, T/C (second compound 0.01 µM, first compound 0.01 µM): 88.6%
viability, T/C (second compound 0.01 µM, first compound 0.0316 µM): 99.1%
viability, T/C (second compound 0.01 µM, first compound 0.1 µM): 84.5%
viability, T/C (second compound 0.01 µM, first compound 0.316 µM): 73.8%
viability, T/C (second compound 0.01 µM, first compound 1 µM): 63.4%
viability, T/C (second compound 0.0316 µM, first compound 0.00316 µM): 93.2%
viability, T/C (second compound 0.0316 µM, first compound 0.01 µM): 98.8%
viability, T/C (second compound 0.0316 µM, first compound 0.0316 µM): 92.5%
viability, T/C (second compound 0.0316 µM, first compound 0.1 µM): 77.4%
viability, T/C (second compound 0.0316 µM, first compound 0.316 µM): 81.5%
viability, T/C (second compound 0.0316 µM, first compound 1 µM): 71.2%
viability, T/C [4]: 96.2%
viability, T/C [5]: 109%
viability, T/C [6]: 82.2%
viability, T/C [7]: 78.9%
viability, T/C (second compound 0.1 µM, first compound 0.316 µM): 70.5%
viability, T/C (second compound 0.1 µM, first compound 1 µM): 62.6%
viability, T/C [8]: 94.9%
viability, T/C [9]: 89%
viability, T/C [10]: 85.1%
viability, T/C [11]: 66.3%
viability, T/C (second compound 0.316 µM, first compound 0.316 µM): 61.3%
viability, T/C (second compound 0.316 µM, first compound 1 µM): 58.6%
viability, T/C [12]: 80.8%
viability, T/C [13]: 74.5%
viability, T/C [14]: 65.6%
viability, T/C [15]: 53.1%
viability, T/C (second compound 1 µM, first compound 0.316 µM): 53.8%
viability, T/C (second compound 1 µM, first compound 1 µM): 44.8%

pIC50 (curve of compound): 5.25 and 5.24 and 5.18
Structure (SMILES): C=C(F)C(=O)N1CCN(c2nc(OCC3CCCN3C)nc3c2CCN(c2cccc4cccc(Cl)c24)C3)CC1CC#N (stereo not given)
viability, T/C (compound 0.0316 µM): 91.3% and 104% and 106%
viability, T/C (compound 0.1 µM): 90% and 103% and 109%
viability, T/C (compound 0.316 µM): 90.5% and 97.4% and 104%
viability, T/C (compound 1 µM): 96.6% and 97.8% and 102%
viability, T/C (compound 3.16 µM): 102% and 86.9% and 95%
viability, T/C (compound 10 µM): 7.1% and 14.9% and 23.5%

pIC50 (compound alone, run of 10/11/2022): < 5.00
Structure (SMILES): Cc1c(S(C)(=O)=O)c(-c2cc(F)cc(N3CCN(c4ccc(NS(=O)(=O)c5ccc(NC(CCN6CCC(C(=O)OCCCP(=O)(O)O)CC6)CSc6ccccc6)c(S(=O)(=O)C(F)(F)F)c5)cc4)CC3)c2)c(-c2ccc(Cl)cc2)n1C(C)C (stereo not given)
viability, T/C (compound 0.1 µM): 97.4% [middle of 14 runs]
viability, T/C (compound 0.316 µM): 97.4% [middle of 14 runs]
viability, T/C (compound 1 µM): 91% [middle of 14 runs]
viability, T/C (compound 3.16 µM): 87.2% [middle of 14 runs]
viability, T/C (compound 10 µM): 74.9% [middle of 14 runs]

pIC50 [1]: < 7.00
pIC50 [2]: < 7.00
pIC50 [3]: < 7.00
pIC50 (curve of first compound, second compound 3.16 µM): < 7.00
pIC50 (curve of first compound, second compound 10 µM): < 7.00
Structure (SMILES): Cn1ncnc1[C@H]1c2n[nH]c(=O)c3cc(F)cc(c23)N[C@@H]1c1ccc(F)cc1 + Cc1c(S(C)(=O)=O)c(-c2cc(F)cc(N3CCN(c4ccc(NS(=O)(=O)c5ccc(NC(CCN6CCC(C(=O)OCCCP(=O)(O)O)CC6)CSc6ccccc6)c(S(=O)(=O)C(F)(F)F)c5)cc4)CC3)c2)c(-c2ccc(Cl)cc2)n1C(C)C
viability, T/C (second compound 0.1 µM, first compound 0.000316 µM): 102%
viability, T/C (second compound 0.1 µM, first compound 0.001 µM): 106%
viability, T/C [4]: 103%
viability, T/C [5]: 85.5%
viability, T/C [6]: 98%
viability, T/C [7]: 87.7%
viability, T/C (second compound 0.316 µM, first compound 0.000316 µM): 100%
viability, T/C (second compound 0.316 µM, first compound 0.001 µM): 98.8%
viability, T/C [8]: 102%
viability, T/C [9]: 90.2%
viability, T/C [10]: 90.4%
viability, T/C [11]: 84.8%
viability, T/C (second compound 1 µM, first compound 0.000316 µM): 91%
viability, T/C (second compound 1 µM, first compound 0.001 µM): 93.3%
viability, T/C [12]: 102%
viability, T/C [13]: 83%
viability, T/C [14]: 85.4%
viability, T/C [15]: 81.1%
viability, T/C (second compound 3.16 µM, first compound 0.000316 µM): 85%
viability, T/C (second compound 3.16 µM, first compound 0.001 µM): 89.3%
viability, T/C (second compound 3.16 µM, first compound 0.00316 µM): 92.7%
viability, T/C (second compound 3.16 µM, first compound 0.01 µM): 81.3%
viability, T/C (second compound 3.16 µM, first compound 0.0316 µM): 79.4%
viability, T/C (second compound 3.16 µM, first compound 0.1 µM): 76.3%
viability, T/C (second compound 10 µM, first compound 0.000316 µM): 72.7%
viability, T/C (second compound 10 µM, first compound 0.001 µM): 74%
viability, T/C (second compound 10 µM, first compound 0.00316 µM): 75%
viability, T/C (second compound 10 µM, first compound 0.01 µM): 76.8%
viability, T/C (second compound 10 µM, first compound 0.0316 µM): 70.8%
viability, T/C (second compound 10 µM, first compound 0.1 µM): 66.5%

pIC50 (curve of first compound, second compound 0.03 µM): < 5.00
pIC50 (curve of first compound, second compound 0.0949 µM): < 5.00
pIC50 (curve of first compound, second compound 0.3 µM): < 5.00
pIC50 (curve of first compound, second compound 0.949 µM): < 5.00
pIC50 (curve of first compound, second compound 3 µM): < 5.00
Structure (SMILES): C=CC(=O)N1CCN(c2nc(=O)n(-c3c(C)ccnc3C(C)C)c3nc(-c4c(O)cccc4F)c(F)cc23)C(C)C1 (stereo not given) + CCN1C(C(=O)NC23CCC(C(=O)O)(CC2)CC3)C(c2cccc(Cl)c2F)C2(C(=O)Nc3cc(Cl)ccc32)C12CCCCC2
viability, T/C (second compound 0.03 µM, first compound 0.0316 µM): 108%
viability, T/C (second compound 0.03 µM, first compound 0.1 µM): 106%
viability, T/C (second compound 0.03 µM, first compound 0.316 µM): 108%
viability, T/C (second compound 0.03 µM, first compound 1 µM): 96.5%
viability, T/C (second compound 0.03 µM, first compound 3.16 µM): 107%
viability, T/C (second compound 0.03 µM, first compound 10 µM): 98.6%
viability, T/C (second compound 0.0949 µM, first compound 0.0316 µM): 103%
viability, T/C (second compound 0.0949 µM, first compound 0.1 µM): 106%
viability, T/C (second compound 0.0949 µM, first compound 0.316 µM): 110%
viability, T/C (second compound 0.0949 µM, first compound 1 µM): 93.2%
viability, T/C (second compound 0.0949 µM, first compound 3.16 µM): 101%
viability, T/C (second compound 0.0949 µM, first compound 10 µM): 103%
viability, T/C (second compound 0.3 µM, first compound 0.0316 µM): 103%
viability, T/C (second compound 0.3 µM, first compound 0.1 µM): 103%
viability, T/C (second compound 0.3 µM, first compound 0.316 µM): 110%
viability, T/C (second compound 0.3 µM, first compound 1 µM): 89.7%
viability, T/C (second compound 0.3 µM, first compound 3.16 µM): 100%
viability, T/C (second compound 0.3 µM, first compound 10 µM): 109%
viability, T/C (second compound 0.949 µM, first compound 0.0316 µM): 102%
viability, T/C (second compound 0.949 µM, first compound 0.1 µM): 110%
viability, T/C (second compound 0.949 µM, first compound 0.316 µM): 117%
viability, T/C (second compound 0.949 µM, first compound 1 µM): 93.8%
viability, T/C (second compound 0.949 µM, first compound 3.16 µM): 99%
viability, T/C (second compound 0.949 µM, first compound 10 µM): 104%
viability, T/C (second compound 3 µM, first compound 0.0316 µM): 94.7%
viability, T/C (second compound 3 µM, first compound 0.1 µM): 94.6%
viability, T/C (second compound 3 µM, first compound 0.316 µM): 107%
viability, T/C (second compound 3 µM, first compound 1 µM): 85.7%
viability, T/C (second compound 3 µM, first compound 3.16 µM): 90%
viability, T/C (second compound 3 µM, first compound 10 µM): 91.8%
